Test results from patent US9409952B2, “Peptide-compound cyclization method” (Chugai Seiyaku Kabushiki Kaisha, priority 2011, dated 2016).
Where two headings read alike, the source gives them in different places. Starred links: 1 amine or outer side, 2 acyl side, 3 side chain; linkers in the order of their positions; H or OH if unused. Positions of bridges follow the written chain, without caps; N, C: chain ends. Non-standard residues stand in square brackets, D forms with d. Residues, ends and D or L forms follow the SMILES beside them. *: point of attachment. Tyr(3-F) = N[C@@H](Cc1ccc(O)c(F)c1)C(=O)O; NMeF = CN[C@@H](Cc1ccccc1)C(=O)O; NMeGABA = CN(CCCC(=O)[*:2])[*:1]; NMeI = CC[C@H](C)[C@H](NC)C(=O)O; NMeβAla = CN(CCC(=O)[*:2])[*:1]; NMeL = CN[C@@H](CC(C)C)C(=O)O; NMeV = CN[C@H](C(=O)O)C(C)C; NMeS = CN[C@@H](CO)C(=O)O; NMeA = CN[C@@H](C)C(=O)O; Piperidide = C1CCN(*)CC1; dNMeA = CN[C@H](C)C(=O)O; Aze = O=C(O)[C@@H]1CCN1; β3hA = C[C@H](N)CC(=O)O; NPrGly = CCCNCC(=O)O; Sar = CNCC(=O)O

How the values were obtained:
[1] = PAMPA (parallel artificial membrane permeability assay); type: in vitro ADME; conditions: PAMPA
Method: 4 μL of a phospholipid-organic solvent solution composed of 10% (w/v) of egg lecithin, 0.5% (w/v) of cholesterol and dodecane (all purchased from Fluka) was added to a Millipore 96-well membrane filter (hydrophobic PVDF (polyvinylidene difluoride), pore size 0.45 microm) (purchased from Millipore Japan) to make an artificial phospholipid membrane.
A DMSO solution containing the compound at a concentration of 10 mM was added in a percentage of 0.5% (v/v) to a 50 mM MOPSO buffer, pH 6.5, containing 5.0% (w/v) of glycocholic acid, and 330 μL of the mixture was added to a 96-well plate made of Teflon (donor plate). The above artificial phospholipid membrane plate was attached onto the donor plate, and 280 μL of a solution obtained by adding DMSO in a percentage of 0.5% (v/v) to a 50 mM MOPSO buffer, pH 6.5, containing 5.0% (w/w) of glycocholic acid was added onto the artificial phospholipid membrane (acceptor plate). These plates were allowed to stand at 37° C. for 18 hours, after which the concentrations of the compound in the solutions in the donor plate and the acceptor plate were measured by LC/MS or LC/UV, and the membrane permeation rate of the compound (Pe) was calculated by the following formulas (1) and (2), where t is the testing time, A is the membrane filter area, VD is the amount of the donor solution, VA is the amount of the acceptor solution, CD,t is the concentration of the compound in the donor solution at the time t, and CA,t is the concentration of the compound in the acceptor solution at the time t.

[2] = Metabolic stability in human hepatic microsome; type: in vitro ADME; conditions: microsomes, pH 7.4; human hepatic microsome, NADPH(+); read-out: CL NADPH(+)
[3] = membrane permeation rate (Pe), 50 mM MOPSO buffer pH 6.5 with 5.0% glycocholic acid, 37° C., 18 hours, read-out: iPAMPA Pe

| Structure (SMILES) | Papp at 18 hours, 50 µM [1, 3] [×10⁻⁶ cm/s] | further results |
| --- | --- | --- |
| CC(C)C[C@@H]1NC(=O)[C@H](CC(C)C)N(C)C(=O)CCN(C)C(=O)C[C@@H](C(=O)N(C)[C@@H](Cc2ccccc2)C(=O)N[C@@H](C)C(=O)N2CCCCC2)NC(=O)[C@H](CC(C)C)N(C)C(=O)[C@H](Cc2ccccc2)NC(=O)[C@H](Cc2ccccc2)N(C)C(=O)[C@H](C)NC(=O)[C@H]([C@@H](C)O)NC(=O)[C@H](CC(C)C)N(C)C1=O [DP-369] ([NMeβAla][NMeL]L[NMeL]TA[NMeF]F[NMeL]D[NMeF]A-Piperidide; lactam N-10) | 26 | – |
| CC[C@H](C)[C@@H]1NC(=O)[C@H](Cc2ccccc2)N(C)C(=O)[C@H]([C@@H](C)O)NC(=O)[C@@H](C)NC(=O)C[C@@H](C(=O)N(C)[C@@H](Cc2ccccc2)C(=O)N(C)[C@@H](Cc2ccccc2)C(=O)N[C@@H](C)C(=O)N2CCCCC2)NC(=O)[C@H](CC(C)C)N(C)C(=O)[C@H](CC(C)C)N(C)C(=O)[C@H](Cc2ccccc2)N(C)C(=O)[C@H](CC(C)C)N(C)C(=O)[C@H](C)N(C)C1=O [DP-289] ([dA]T[NMeF]I[NMeA][NMeL][NMeF][NMeL][NMeL]D[NMeF][NMeF]A-Piperidide; lactam N-10) | – | Papp at 18 hours, 50 µM ([1]; pH 6.5): 0.14 ×10⁻⁶ cm/s |
| CC[C@H](C)[C@@H]1NC(=O)[C@H](C)NC(=O)C[C@@H](C(=O)N(C)[C@@H](Cc2ccccc2)C(=O)N[C@@H](C)C(=O)N2CCCCC2)NC(=O)[C@H](Cc2ccccc2)N(C)C(=O)[C@H](CC(C)C)N(C)C(=O)[C@H](C)N(C)C(=O)[C@H]([C@@H](C)O)NC(=O)[C@H](Cc2ccccc2)N(C)C(=O)[C@H](CC(C)C)N(C)C(=O)[C@H](C)N(C)C(=O)[C@H](CC(C)C)N(C)C1=O [DP-178] (AI[NMeL][NMeA][NMeL][NMeF]T[NMeA][NMeL][NMeF]D[NMeF]A-Piperidide; lactam N-11) | 1 | – |
| CC(C)C[C@H]1C(=O)N(C)[C@@H](CC(C)C)C(=O)N(C)[C@@H](Cc2ccccc2)C(=O)N[C@@H]([C@@H](C)O)C(=O)N(C)[C@@H](C)C(=O)N(C)[C@@H](CC(C)C)C(=O)N(C)[C@@H](Cc2ccccc2)C(=O)N[C@H](C(=O)N(C)[C@@H](Cc2ccccc2)C(=O)N[C@@H](C)C(=O)N2CCCCC2)CC(=O)N(C)[C@H](C)C(=O)N(C)[C@@H](CC(C)C)C(=O)N[C@@H](C)C(=O)N1C [DP-184] ([dNMeA][NMeL]A[NMeL][NMeL][NMeF]T[NMeA][NMeL][NMeF]D[NMeF]A-Piperidide; lactam N-11) | 1.3 | – |
| CC[C@H](C)[C@@H]1NC(=O)[C@H](CC(C)C)N(C)C(=O)[C@H](Cc2ccccc2)N(C)C(=O)[C@H]([C@@H](C)O)NC(=O)[C@H](C)N(C)C(=O)CCCN(C)C(=O)C[C@@H](C(=O)N(C)[C@@H](Cc2ccccc2)C(=O)N[C@@H](C)C(=O)N2CCCCC2)NC(=O)[C@H](CC(C)C)N(C)C(=O)[C@H](Cc2ccccc2)N(C)C(=O)[C@H](CC(C)C)N(C)C1=O [DP-373] ([NMeGABA][NMeA]T[NMeF][NMeL]I[NMeL][NMeF][NMeL]D[NMeF]A-Piperidide; lactam N-10) | 9.2 | – |
| CC(C)C[C@@H]1NC(=O)[C@H](CC(C)C)N(C)C(=O)[C@H](C(C)C)NC(=O)C[C@H](C)NC(=O)CN(C)C(=O)[C@H](CC(C)C)NC(=O)[C@H](CO)N(C)C(=O)[C@H](CC(C)C)N(C)C(=O)[C@H](CC(C)C)N(C)C(=O)[C@H](CC(C)C)N(C)C(=O)[C@@H](CC(C)C)NC1=O [DP-640] (cyclo(L[Sar][β3hA]V[NMeL]L[dL][NMeL][NMeL][NMeL][NMeS])) | 50 | – |
| CC[C@H](C)[C@H]1C(=O)N[C@H](C(=O)N2CCCCC2)CC(=O)N[C@H](C)C(=O)N[C@@H]([C@@H](C)O)C(=O)N(C)[C@@H](C)C(=O)N(C)[C@@H](C(C)C)C(=O)N[C@@H](Cc2ccccc2)C(=O)N(C)CC(=O)N(C)[C@@H](CC(C)C)C(=O)N[C@@H](C)C(=O)N1C [DP-71] ([dA]T[NMeA][NMeV]F[Sar][NMeL]A[NMeI]D-Piperidide; lactam N-10) | – | Papp at 18 hours, 50 µM ([1]; pH 6.5): 5.4 ×10⁻⁶ cm/s |
| CC[C@H](C)[C@@H]1NC(=O)[C@H](CC(C)C)N(C)C(=O)[C@H](C)N(C)C(=O)[C@H](C)N(C)C(=O)CCN(C)C(=O)C[C@@H](C(=O)N(C)[C@@H](Cc2ccccc2)C(=O)N[C@@H](C)C(=O)N2CCCCC2)NC(=O)[C@H](Cc2ccccc2)N(C)C(=O)[C@H](C)N(C)C(=O)[C@H]([C@@H](C)O)NC(=O)[C@H](Cc2ccccc2)N(C)C(=O)[C@H](C)N(C)C1=O [DP-362] ([NMeβAla][NMeA][NMeA][NMeL]I[NMeA][NMeF]T[NMeA][NMeF]D[NMeF]A-Piperidide; lactam N-11) | 27 | – |
| CC[C@H](C)[C@@H]1NC(=O)[C@H](CC(C)C)N(C)C(=O)[C@H](Cc2ccccc2)N(C)C(=O)[C@H]([C@@H](C)O)NC(=O)[C@H](CC(C)C)N(C)C(=O)[C@H](CC(C)C)N(C)C(=O)[C@H](C)N(C)C(=O)C[C@@H](C(=O)N2CCCCC2)NC(=O)[C@H](CC(C)C)NC(=O)[C@H](Cc2ccccc2)N(C)C(=O)[C@H](C)N(C)C1=O [DP-154] ([NMeA][NMeL][NMeL]T[NMeF][NMeL]I[NMeA][NMeF]LD-Piperidide; lactam N-11) | – | Papp at 18 hours, 50 µM ([1]; pH 6.5): 9.3 ×10⁻⁶ cm/s |
| CC[C@H](C)[C@H](NC(=O)[C@H](C)N(C)C(=O)[C@@H]1CC(=O)N(C)[C@H](C)C(=O)N(C)[C@@H](C)C(=O)N(C)[C@@H](Cc2ccccc2)C(=O)N(C)[C@@H](CC(C)C)C(=O)N[C@@H]([C@@H](C)O)C(=O)N(C)[C@@H](C)C(=O)N(C)[C@@H](CC(C)C)C(=O)N[C@@H](CO)C(=O)N1)C(=O)N1CCC[C@H]1C(=O)N[C@H](C(=O)N[C@@H](C)C(=O)N1CCCCC1)C(C)C [DP-578] ([dNMeA][NMeA][NMeF][NMeL]T[NMeA][NMeL]SD[NMeA]IPVA-Piperidide; lactam N-9) | 3.4 | – |
| CC[C@H](C)[C@@H]1NC(=O)[C@H](CC(C)C)N(C)C(=O)[C@H](C)N(C)C(=O)[C@H]([C@@H](C)O)NC(=O)[C@H](CC(C)C)N(C)C(=O)[C@H](Cc2ccccc2)N(C)C(=O)[C@@H](C(C)C)NC(=O)C[C@@H](C(=O)N(C)[C@@H](Cc2ccccc2)C(=O)N[C@@H](C)C(=O)N2CCCCC2)NC(=O)[C@H](C(C)C)N(C)C1=O [DP-308] ([dV][NMeF][NMeL]T[NMeA][NMeL]I[NMeV]D[NMeF]A-Piperidide; lactam N-9) | – | Papp at 18 hours, 50 µM ([1]; pH 6.5): 27 ×10⁻⁶ cm/s |
| CC(C)[C@@H]1NC(=O)[C@H](Cc2ccccc2)N(C)C(=O)[C@H](C)N(C)C(=O)[C@H]([C@@H](C)O)NC(=O)CNC(=O)[C@H](C)N(C)C(=O)[C@H](Cc2ccccc2)NC(=O)[C@H](C)N(C)C(=O)C[C@@H](C(=O)N(C)[C@@H](Cc2ccccc2)C(=O)N(C)[C@@H](Cc2ccccc2)C(=O)N[C@@H](C)C(=O)N2CCCCC2)NC(=O)[C@H](C(C)C)N(C)C1=O [DP-393] ([NMeA]F[NMeA]GT[NMeA][NMeF]V[NMeV]D[NMeF][NMeF]A-Piperidide; lactam N-10) | 18 | – |
| CC(C)C[C@@H]1NC(=O)[C@H](CC(C)C)N(C)C(=O)[C@H](C)N(C)C(=O)[C@H](Cc2ccc(O)c(F)c2)NC(=O)[C@H](Cc2ccccc2)N(C)C(=O)[C@H]([C@@H](C)O)NC(=O)[C@H](CC(C)C)N(C)C(=O)[C@H](Cc2ccccc2)NC(=O)[C@H](C)NC(=O)C[C@@H](C(=O)N(C)[C@@H](Cc2ccccc2)C(=O)N[C@@H](C)C(=O)N2CCCCC2)NC1=O [DP-606] (AF[NMeL]T[NMeF][Tyr(3-F)][NMeA][NMeL]LD[NMeF]A-Piperidide; lactam N-10) | – | microsomal CLint at 1 uM [2]: 70 µL/min/mg |
| CC(C)C[C@H]1C(=O)N(C)[C@@H](CC(C)C)C(=O)N[C@@H](Cc2c[nH]c3ccccc23)C(=O)N[C@H](C(=O)N(C)[C@@H](Cc2ccccc2)C(=O)N[C@@H](C)C(=O)N2CCCCC2)CC(=O)N[C@@H](C)C(=O)N[C@@H](Cc2ccccc2)C(=O)N(C)[C@@H](CC(C)C)C(=O)N[C@@H]([C@@H](C)O)C(=O)N(C)[C@@H](Cc2ccccc2)C(=O)NCC(=O)N1C [DP-608] (AF[NMeL]T[NMeF]G[NMeL][NMeL]WD[NMeF]A-Piperidide; lactam N-10) | – | microsomal CLint at 1 uM [2]: 13 µL/min/mg |
| CC(C)C[C@@H]1NC(=O)[C@H](CC(C)C)N(C)C(=O)[C@H](Cc2ccccc2)NC(=O)[C@H](C)N(C)C(=O)C[C@@H](C(=O)N2CCCCC2)NC(=O)[C@H](Cc2ccccc2)NC(=O)[C@@H]2CCCN2C(=O)[C@H]([C@@H](C)O)NC(=O)[C@H](CC(C)C)N(C)C(=O)CNC(=O)[C@@H]2CCN2C1=O [DP-554] ([NMeA]F[NMeL]L[Aze]G[NMeL]TPFD-Piperidide; lactam N-11) | – | microsomal CLint at 1 uM [2]: 80 µL/min/mg |
| CCCN1CC(=O)N(C)[C@@H](CC(C)C)C(=O)N[C@H](C(=O)N2CCCCC2)CC(=O)N(C)[C@H](C)C(=O)N[C@@H](CC(C)C)C(=O)N(C)[C@@H](CC(C)C)C(=O)N(C)[C@@H](Cc2ccccc2)C(=O)N[C@@H](C)C(=O)N(C)[C@@H](Cc2ccccc2)C(=O)N(C)[C@@H]([C@@H](C)CC)C(=O)N[C@@H]([C@@H](C)O)C1=O [DP-635] ([dNMeA]L[NMeL][NMeF]A[NMeF][NMeI]T[NPrGly][NMeL]D-Piperidide; lactam N-11) | – | microsomal CLint at 1 uM [2]: 112 µL/min/mg |
